Where a name gives a salt, the structure may show the parent alone.

This passage reports IC50 results from patent publication US20170291905A1, “ARGININE […] INHIBITORS AND USES THEREOF” (Epizyme, Inc., priority 2014, published 2017).

The test deals with T1, full-length human PRMT1 isoform 1 (GST-tagged) (Homo sapiens, UniProt Q99873).
T1 construct: GST-tagged PRMT1 was eluted with 50 mM Tris, 2 mM glutathione, pH 7.8, dialysed in buffer A and concentrated; made in house; host or cells: High Five insect cells (baculovirus)
T1 sequence (Q99873 with tags, fused parts or gaps): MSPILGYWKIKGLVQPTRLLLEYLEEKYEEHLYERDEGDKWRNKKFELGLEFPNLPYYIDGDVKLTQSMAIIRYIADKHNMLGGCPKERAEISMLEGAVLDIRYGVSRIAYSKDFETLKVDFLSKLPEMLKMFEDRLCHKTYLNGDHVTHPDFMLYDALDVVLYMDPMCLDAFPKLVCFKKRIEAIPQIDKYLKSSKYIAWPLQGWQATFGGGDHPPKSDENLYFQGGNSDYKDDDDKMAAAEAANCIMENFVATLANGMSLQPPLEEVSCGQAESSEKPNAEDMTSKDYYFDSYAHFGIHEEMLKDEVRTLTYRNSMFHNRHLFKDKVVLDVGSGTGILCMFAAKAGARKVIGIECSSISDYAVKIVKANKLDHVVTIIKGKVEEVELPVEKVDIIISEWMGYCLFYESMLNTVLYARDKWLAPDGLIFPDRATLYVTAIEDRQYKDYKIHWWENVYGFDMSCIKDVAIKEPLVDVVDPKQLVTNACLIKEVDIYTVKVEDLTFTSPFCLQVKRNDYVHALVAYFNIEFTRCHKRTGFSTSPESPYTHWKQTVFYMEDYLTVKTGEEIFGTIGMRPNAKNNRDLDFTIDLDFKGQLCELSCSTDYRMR
The test can be described thus: PRMT1 biochemical assay (3H-SAM Flashplate, histone H4 36-50 peptide). The following applies: 0.5 nM PRMT1, 30 min preincubation, 20 nM peptide. In outline: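 GST-PRMT1 (0.5 nM) preincubated 30 min at room temperature with compound in bicine buffer pH 7.6. Reaction then run with 200 nM 3H-SAM plus 1.5 uM SAM and 20 nM biotinylated H4 36-50 peptide, 2% DMSO. Stopped with excess cold SAM, and methylated peptide captured on streptavidin Flashplates for counting; % inhibition versus DMSO and 1 mM SAH controls, 3- or 4-parameter fit.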
Usually IC50 stands for the midpoint of a concentration-inhibition curve. For the molecule `CCOCC1(COCC)CCC(c2nn(C)cc2CN(C)CCNC)CC1` [compound 122], the IC50 was 21.1 nM. This counts as double-digit nanomolar.

`CCOCC1(COCC)CCC(c2n[nH]cc2CN(C)CCN)CC1` [compound 123] yielded an IC50 of 4.28 nM.

Molecule `CCOCC1(COCC)CCC(c2nn(C)cc2CN(C)CCN)CC1` [compound 124] returned an IC50 of 13.7 nM.

As to `CNCCN(C)Cc1c[nH]nc1C1CCC2(CC1)CC(C)(C)OC2=O` (stereo not drawn) [compound 125], the concentration for half-maximal inhibition (IC50) turned out to be 10.7 nM.

With `CNCCN(C)Cc1c[nH]nc1[C@H]1CC[C@@]2(CC1)COC(C)(C)C2` [compound 126, N1-((3-((5r,8r)-3,3-dimethyl-2-oxaspiro[4.5]decan-8-yl)-1H-pyrazol-4-yl)methyl)-N1,N2-dimethylethane-1,2-diamine], 14.3 nM corresponded to half-maximal inhibition (IC50). The IC50 values of the last two molecules are within 1.5-fold of each other.

Consider `CNCCN(C)Cc1c[nH]nc1[C@H]1CC[C@]2(CCCCO2)CC1` [compound 127, methyl([2-[methyl([3-[(6s,9r)-1-oxaspiro[5.5]undecan-9-yl]-1H-pyrazol-4-yl]methyl)amino]ethyl])amine bistrifluoroacetic acid salt], for which the IC50 is 7.33 nM. This IC50 is about 2-fold lower than that of the molecule before.
